In PubChem BioAssay (NCI) one finds GI50 and TGI data, which are given here for 13 compounds.

Some test systems named below: HL-60(TB) leukemia; DU-145 prostate; RPMI-8226 leukemia; UO-31 renal; SNB-19 CNS; SF-295 CNS; HT29 colon; MDA-MB-435; A498 renal; MOLT-4 leukemia; OVCAR-8 ovarian.
Common to all, as to assay: NCI tumour cell line growth inhibition, 48 h

SMILES strings stand for the structures.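 The compound was tested at five concentrations on cells cultured in 96-well plates, with a 48-hour exposure period. The concentration for 50% growth inhibition is given as GI50. TGI denotes the concentration required for complete inhibition of growth.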

Take `CCCC(=O)O`: the GI50 with HL-60(TB) leukemia is 1120 µM; in the assay with RPMI-8226 leukemia it was 473 µM. Besides, the TGI in the assay on HL-60(TB) leukemia is greater than 18700 µM; with DU-145 prostate, 13200 µM; in the assay with UO-31 renal, 10200 µM; in the assay with SNB-19 CNS it was greater than 18700 µM; in the assay on SF-295 CNS it was greater than 18700 µM; in the assay on HT29 colon, greater than 18700 µM. Further, the TGI is greater than 18700 µM in the assay on MDA-MB-435, 10400 µM in the assay with A498 renal, greater than 18700 µM in the assay on MOLT-4 leukemia and greater than 18700 µM in the assay on OVCAR-8 ovarian.
`O=C1Oc2ccccc2C(=O)/C1=C/N1C(=O)N/C(=C\c2ccccc2O)C1=O`: the TGI in the assay with HL-60(TB) leukemia, in the assay on DU-145 prostate, with RPMI-8226 leukemia, in the assay on UO-31 renal, in the assay on SNB-19 CNS and in the assay on SF-295 CNS was greater than 100 µM each time. Also, the TGI in the assay with HT29 colon, with MDA-MB-435, with A498 renal, in the assay on MOLT-4 leukemia and with OVCAR-8 ovarian was greater than 100 µM each time.
Consider `COC(=O)c1c2c(cc3c1CC1(Cc4ccccc4C1=O)C3)CCC2` (centres undefined), for which the TGI in the assay with HL-60(TB) leukemia is 53.1 µM; in the assay on DU-145 prostate it was greater than 100 µM; in the assay on RPMI-8226 leukemia it was 99.8 µM; in the assay on UO-31 renal, greater than 100 µM; with SNB-19 CNS it was greater than 100 µM; in the assay with SF-295 CNS it was greater than 100 µM. The TGI is 96.9 µM in the assay on HT29 colon; 40.3 µM in the assay with MDA-MB-435; greater than 100 µM with A498 renal; 47.4 µM in the assay with MOLT-4 leukemia; greater than 100 µM in the assay with OVCAR-8 ovarian.
On to `O=c1cc(CNC2CCCC2)[nH]c(=O)[nH]1`, for which the TGI with HL-60(TB) leukemia, with DU-145 prostate, with RPMI-8226 leukemia, in the assay with UO-31 renal, with SNB-19 CNS and in the assay on SF-295 CNS was greater than 100 µM in each case. Also, the TGI in the assay on HT29 colon, in the assay on MDA-MB-435, with A498 renal, in the assay with MOLT-4 leukemia and with OVCAR-8 ovarian was greater than 100 µM each time.
As to `Clc1ccc2c(SCC3CO3)c3ccccc3nc2c1` (centres undefined), the TGI with HL-60(TB) leukemia turned out to be 2.59 µM; in the assay with DU-145 prostate it was 2.95 µM; with RPMI-8226 leukemia, 7.19 µM; with UO-31 renal, 3.34 µM; in the assay with SNB-19 CNS, 15.3 µM; in the assay on SF-295 CNS, 42.1 µM. For the same compound, the TGI with HT29 colon is 3.23 µM; in the assay on MDA-MB-435, 20.2 µM; with A498 renal, 33.9 µM; with MOLT-4 leukemia, 4.3 µM; in the assay with OVCAR-8 ovarian, greater than 100 µM.
As to `C=C(C)[C@@H]1CC[C@]2(C(=O)O)CC[C@]3(C)[C@H](CC[C@@H]4[C@@]5(C)CC(=O)C(C)(C)[C@@H]5CC[C@]43C)[C@@H]12`, the TGI in the assay with HL-60(TB) leukemia is 1.61 µM; in the assay with DU-145 prostate, greater than 25 µM; with RPMI-8226 leukemia it was 11.6 µM; in the assay with UO-31 renal, 16.4 µM; in the assay with SNB-19 CNS, greater than 25 µM; in the assay on SF-295 CNS, greater than 25 µM. Further, the TGI was greater than 25 µM with HT29 colon; greater than 25 µM with MDA-MB-435; 17.2 µM in the assay with A498 renal; 14.5 µM in the assay on MOLT-4 leukemia; greater than 25 µM with OVCAR-8 ovarian.
Regarding `CN1C/C(=C\c2cccs2)C2=NC(=S)NC(c3cccs3)C2C1` (centres undefined), the TGI in the assay on HL-60(TB) leukemia is 19.1 µM; with DU-145 prostate it was greater than 100 µM; in the assay on RPMI-8226 leukemia, greater than 100 µM; in the assay on UO-31 renal, greater than 100 µM; in the assay with SNB-19 CNS, greater than 100 µM; in the assay with SF-295 CNS it was greater than 100 µM. For the same compound, the TGI in the assay on HT29 colon was greater than 100 µM; in the assay with MDA-MB-435 it was greater than 100 µM; in the assay on A498 renal it was greater than 100 µM; in the assay on MOLT-4 leukemia, 92 µM; with OVCAR-8 ovarian, greater than 100 µM.
`O=C(c1ccccc1)c1ccc2c(c1)nc1n2C(c2c(Cl)cccc2Cl)SC1` (centres undefined): the TGI in the assay on HL-60(TB) leukemia, in the assay with DU-145 prostate, in the assay with RPMI-8226 leukemia, with UO-31 renal, with SNB-19 CNS and with SF-295 CNS was greater than 100 µM in each case. Also, the TGI in the assay on HT29 colon, in the assay with MDA-MB-435, in the assay on A498 renal, in the assay on MOLT-4 leukemia and in the assay with OVCAR-8 ovarian was greater than 100 µM each time.
For the compound `COC(=O)N1CC2(CO)C3CC=C(C(=O)Nc4ccccc4Br)C2C1C3Br` (centres undefined), the TGI in the assay with HL-60(TB) leukemia, in the assay with DU-145 prostate, with RPMI-8226 leukemia, in the assay with UO-31 renal, in the assay with SNB-19 CNS and with SF-295 CNS was greater than 50 µM throughout. Besides, the TGI in the assay on HT29 colon, in the assay on MDA-MB-435, with A498 renal, with MOLT-4 leukemia and in the assay on OVCAR-8 ovarian was greater than 50 µM throughout.
Consider `O=c1[nH]c(=O)n(C2CC(O)C(CO)O2)cc1I` (centres undefined), for which the TGI in the assay with HL-60(TB) leukemia, in the assay on DU-145 prostate, with RPMI-8226 leukemia, in the assay with UO-31 renal, in the assay on SNB-19 CNS and in the assay on SF-295 CNS was greater than 100 µM in each case. Also, the TGI in the assay on HT29 colon, in the assay with MDA-MB-435, in the assay on A498 renal, in the assay on MOLT-4 leukemia and in the assay on OVCAR-8 ovarian was greater than 100 µM in each case.
Take `C1=C\SS/C=C\SS/C=C\SS/C=C\SS/1`: the TGI in the assay on HL-60(TB) leukemia was 58.1 µM; with DU-145 prostate, greater than 100 µM; in the assay on RPMI-8226 leukemia, greater than 100 µM; in the assay on UO-31 renal, greater than 100 µM; in the assay with SNB-19 CNS, greater than 100 µM; in the assay with SF-295 CNS it was greater than 100 µM. For the same compound, the TGI in the assay with HT29 colon, in the assay with MDA-MB-435, in the assay with A498 renal, in the assay with MOLT-4 leukemia and with OVCAR-8 ovarian was greater than 100 µM each time.
In the case of `O=C(O)c1ccccc1.[Ag]`, the TGI in the assay on HL-60(TB) leukemia is greater than 42 µM; in the assay on DU-145 prostate, 32.1 µM; in the assay on RPMI-8226 leukemia it was greater than 23.5 µM; in the assay on UO-31 renal it was 7.17 µM; in the assay on SNB-19 CNS it was greater than 100 µM; in the assay with SF-295 CNS, greater than 100 µM. Moreover, the TGI in the assay on HT29 colon was 43.7 µM; in the assay on MDA-MB-435, 31.7 µM; with A498 renal, 36.8 µM; in the assay on MOLT-4 leukemia, greater than 21.7 µM; in the assay with OVCAR-8 ovarian, greater than 72.7 µM.
As to `C=C(C)C(=O)CC[C@@H](C)[C@H]1[C@@H](OC2OC(CO)C(O)C(O)C2O)C[C@@]2(C)[C@@H]3C[C@H](O)C4C(C)(C)[C@@H](OC5OC(CO)C(O)C(O)C5O)CC[C@@]45C[C@@]35CC[C@]12C` (some centres undefined), the TGI in the assay on HL-60(TB) leukemia, in the assay with DU-145 prostate, in the assay with RPMI-8226 leukemia, in the assay with UO-31 renal, in the assay with SNB-19 CNS and in the assay with SF-295 CNS was greater than 100 µM in each case. In addition, the TGI in the assay with HT29 colon, in the assay on MDA-MB-435, in the assay on A498 renal, in the assay with MOLT-4 leukemia and in the assay on OVCAR-8 ovarian was greater than 100 µM throughout.
